Reference: US20060045953A1 (priority 2004, published 2006)
Where two headings read alike, the source gives them in different places.

How the values were obtained:
[1] = molecular target: T1, hT1R2/hT1R3 sweet receptor (Homo sapiens, UniProt Q7RTX0+Q8TE23); assay: In vitro hT1R2/hT1R3 sweet taste receptor activation assay (FLIPR, dose response); format: cell-based
T1 construct: expressed in transfected cells; host or cells: HEK293 derivative stably expressing Gα15, clone S-9
T1 sequence (Q8TE23 20-839): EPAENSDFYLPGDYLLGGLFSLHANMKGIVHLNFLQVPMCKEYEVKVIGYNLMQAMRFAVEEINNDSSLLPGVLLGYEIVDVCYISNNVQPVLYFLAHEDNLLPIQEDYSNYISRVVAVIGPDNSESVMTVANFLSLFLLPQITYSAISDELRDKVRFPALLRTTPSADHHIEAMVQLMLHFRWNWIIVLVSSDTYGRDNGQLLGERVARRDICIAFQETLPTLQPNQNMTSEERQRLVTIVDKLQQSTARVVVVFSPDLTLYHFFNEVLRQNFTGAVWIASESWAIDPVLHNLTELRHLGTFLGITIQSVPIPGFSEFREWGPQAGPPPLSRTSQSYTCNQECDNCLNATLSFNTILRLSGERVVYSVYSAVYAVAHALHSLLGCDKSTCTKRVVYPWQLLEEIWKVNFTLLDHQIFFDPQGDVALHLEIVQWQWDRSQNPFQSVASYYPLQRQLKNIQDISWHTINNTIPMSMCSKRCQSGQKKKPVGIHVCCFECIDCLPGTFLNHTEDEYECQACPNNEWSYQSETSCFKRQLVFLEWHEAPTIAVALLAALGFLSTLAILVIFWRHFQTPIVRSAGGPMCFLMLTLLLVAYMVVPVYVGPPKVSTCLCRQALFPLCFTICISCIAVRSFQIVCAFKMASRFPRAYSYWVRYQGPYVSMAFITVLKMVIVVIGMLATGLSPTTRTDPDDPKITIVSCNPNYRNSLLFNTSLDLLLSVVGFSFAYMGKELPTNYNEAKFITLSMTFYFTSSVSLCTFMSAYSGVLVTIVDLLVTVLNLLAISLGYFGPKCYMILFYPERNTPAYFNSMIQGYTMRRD
T1 sequence (Q7RTX0 21-852): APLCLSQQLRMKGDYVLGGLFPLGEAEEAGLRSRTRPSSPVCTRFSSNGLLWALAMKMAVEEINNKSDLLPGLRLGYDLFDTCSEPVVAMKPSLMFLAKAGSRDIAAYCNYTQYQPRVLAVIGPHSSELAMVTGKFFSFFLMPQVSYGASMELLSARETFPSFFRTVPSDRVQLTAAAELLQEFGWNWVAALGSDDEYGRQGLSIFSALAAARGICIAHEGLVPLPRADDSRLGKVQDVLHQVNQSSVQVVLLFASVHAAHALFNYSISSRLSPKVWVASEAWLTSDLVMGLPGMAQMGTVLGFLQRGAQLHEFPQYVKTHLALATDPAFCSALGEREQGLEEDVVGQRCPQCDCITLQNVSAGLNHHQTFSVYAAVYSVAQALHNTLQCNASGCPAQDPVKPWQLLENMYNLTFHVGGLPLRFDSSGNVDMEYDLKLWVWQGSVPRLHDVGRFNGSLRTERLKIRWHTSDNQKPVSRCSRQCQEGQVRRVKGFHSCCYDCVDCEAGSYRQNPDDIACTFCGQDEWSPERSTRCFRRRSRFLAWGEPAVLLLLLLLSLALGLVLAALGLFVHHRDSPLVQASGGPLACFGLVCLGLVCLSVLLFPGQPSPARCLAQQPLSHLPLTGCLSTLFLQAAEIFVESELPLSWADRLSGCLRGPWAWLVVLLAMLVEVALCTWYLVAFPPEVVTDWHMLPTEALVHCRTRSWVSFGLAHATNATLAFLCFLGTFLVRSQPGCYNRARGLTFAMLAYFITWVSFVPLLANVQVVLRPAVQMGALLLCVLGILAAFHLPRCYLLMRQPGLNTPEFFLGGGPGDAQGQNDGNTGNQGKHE
Outline: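 Dose-response at 10 concentrations (60 nM–30 µM, duplicates) measured as Fluo-3AM calcium fluorescence on FLIPR in hT1R2/hT1R3 S-9 cells, in D-PBS at room temperature. Responses scaled to 400 mM D-fructose. EC50s from regression with all curve parameters floating.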

[2] = molecular target: T2, hT1R1/hT1R3 umami receptor (Homo sapiens, UniProt Q7RTX0+Q7RTX1); assay: In vitro hT1R1/hT1R3 umami taste receptor activation assay (FLIPR, dose response); format: cell-based
T2 construct: expressed in transfected cells; host or cells: HEK293 derivative stably expressing Gα15, clone I-17, expression induced with mifepristone
T2 sequence (Q7RTX1 21-841): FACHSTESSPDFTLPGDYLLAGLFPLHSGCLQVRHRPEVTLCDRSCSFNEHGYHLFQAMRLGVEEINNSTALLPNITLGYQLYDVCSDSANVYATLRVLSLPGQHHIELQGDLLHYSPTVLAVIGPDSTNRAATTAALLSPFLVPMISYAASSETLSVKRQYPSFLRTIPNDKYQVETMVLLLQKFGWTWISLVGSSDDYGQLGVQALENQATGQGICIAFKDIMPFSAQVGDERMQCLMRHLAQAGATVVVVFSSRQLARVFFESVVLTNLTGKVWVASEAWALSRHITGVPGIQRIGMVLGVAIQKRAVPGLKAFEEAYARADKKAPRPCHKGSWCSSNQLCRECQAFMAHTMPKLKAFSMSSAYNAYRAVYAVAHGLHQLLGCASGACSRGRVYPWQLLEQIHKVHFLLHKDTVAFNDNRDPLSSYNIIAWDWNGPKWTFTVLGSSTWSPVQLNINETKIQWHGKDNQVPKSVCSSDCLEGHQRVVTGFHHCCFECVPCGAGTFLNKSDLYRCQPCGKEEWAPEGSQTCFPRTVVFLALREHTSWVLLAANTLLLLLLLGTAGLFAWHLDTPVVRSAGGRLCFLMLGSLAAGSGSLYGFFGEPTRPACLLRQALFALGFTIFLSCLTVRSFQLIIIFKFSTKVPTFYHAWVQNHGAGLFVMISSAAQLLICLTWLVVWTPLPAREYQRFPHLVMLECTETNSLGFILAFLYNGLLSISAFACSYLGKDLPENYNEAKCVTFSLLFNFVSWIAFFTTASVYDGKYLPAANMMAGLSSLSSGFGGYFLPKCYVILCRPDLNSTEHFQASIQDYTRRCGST
T2 sequence (Q7RTX0 21-852): T1 sequence (Q7RTX0 21-852)

[3] = read-out: EC50 for activation of a hT1R2/hT1R3 sweet receptor expressed in an HEK293 cell line
[4] = read-out: EC50 for activation of a hT1R1/hT1R3 umami receptor expressed in an HEK293 cell line

Row | SMILES | EC50 [1, 3] [nM] | melting point [°C] | EC50 [2, 4] [nM] | EC50 ([2]; Table E, read-out: Umami EC50) [nM] | EC50 ([1]; Table E, Sweet Enhancer Amides, read-out: Sweet EC50) [nM]
1 | O=C(Nc1ccc2c(c1)OCO2)N1Cc2ccccc2C1 [Example 174, N-(3,4-methylenedioxyphenyl)isoindoline-2-carboxamide] | 1050 | 165 to 166 |  |  | 
2 | CCCC(CCC)NC(=O)c1ccc2oc(OC)nc2c1 [Example 42, 2-Methoxy-benzooxazole-5-carboxylic acid (1-propyl-butyl)-amide] |  | 137 to 138 | 690 |  | 
3 | Cc1c(F)c(F)c(C(=O)NC2CCCCCC2)c(F)c1F [Example 164, N-cycloheptyl-2,3,5,6-tetrafluoro-4-methylbenzamide] | 1850 | 164 to 165 |  |  | 
4 | COc1ccc(CNC(=O)C(=O)NCCc2ccccn2)c(C)c1 [Example 126, N-(2-Methyl-4-methoxybenzyl)-N′-(2-pyridin-2-yl-ethyl)-oxalamide] |  | 133 to 134 | 110 |  | 
5 | Cc1ccsc1CNC(=O)C(=O)NCCc1ccccn1 [Example 124, N-(3-Methyl-thiophen-2-ylmethyl)-N′-(2-pyridin-2-yl-ethyl)-oxalamide] |  | 122 to 124 | 370 |  | 
6 | COc1ccccc1CNC(=O)C(=O)NCCc1ccccn1 [Example 122, N-(2-Methoxy-benzyl)-N′-(2-pyridin-2-yl-ethyl)-oxalamide] |  | 118 to 119 | 340 |  | 
7 | CCCC(CCC)NC(=O)c1ccc2nc(CCl)oc2c1 [Example 47, 2-Chloromethyl-benzooxazole-6-carboxylic acid (1-propyl-butyl)-amide] |  | 137 to 137.5 | 450 |  | 
8 | COc1ccc(CNC(=O)C(=O)NCCc2cccs2)c(OC)c1 [Example 156, N-(2,4-Dimethoxybenzyl)-N′-(2-(thiophen-2-yl)ethyl)oxalamide] |  | 146 to 147 | 4870 |  | 
9 | CCCC(CCC)NC(=O)c1ccc2oc(OCC)nc2c1 [Example 43, 2-Ethoxy-benzooxazole-5-carboxylic acid (1-propyl-butyl)-amide] |  | 128 to 129 | 5000 |  | 
10 | COc1ccc(CNC(=O)C(=O)NCCc2ccc(C)cn2)c(OC)c1 [Example 155, N-(2,4-Dimethoxybenzyl)-N′-(2-(5-methylpyridin-2-yl)ethyl)oxalamide] |  | 124 to 125 | 70 |  | 
11 | CCOc1ccc(NC(=O)NCCc2ccccn2)cc1 [Example 160, 1-(4-ethoxyphenyl)-3-(2-(pyridine-2-yl)ethyl)urea] |  | 163 to 164 | 4100 |  | 
12 | CCCC(CCC)NC(=O)Nc1ccccc1Cl [Example 158] |  | 135 to 136 | 370 |  | 
13 | CCCC(CCC)NC(=O)Nc1ccc(OC)cc1OC [Example 159, 1-(2,4-dimethoxyphenyl)-3-(heptan-4-yl)urea] |  | 172 to 173 | 980 |  | 
14 | CCOc1ccc(CNC(=O)C(=O)NCCc2ccccn2)c(OC)c1 [Example 134, N-(4-ethoxy-2-methoxybenzyl)-N′-(2-(pyridin-2-yl)ethyl)oxalamide] |  | 117 to 118 | 100 |  | 
15 | Cc1ccc(CNC(=O)C(=O)NCCc2ccccn2)c(C)c1 [Example 133, N-(2,4-dimethylbenzyl)-N′-(2-(pyridin-2-yl)ethyl)oxalamide] |  | 148 to 149 | 70 |  | 
16 | CCCC(CCC)NC(=O)c1ccc2oc(CCl)nc2c1 [Example 45, Chloromethyl benzooxazol-5-carboxylic acid (1-propyl-butyl)amide] |  | 108.5 to 109 | 230 |  | 
17 | CC(C)c1ccc(NC(=O)NCCc2ccccn2)cc1 [Example 161, 1-(4-isopropylphenyl)-3-(2-(pyridine-2-yl)ethyl)urea] |  | 72 to 73 | 980 |  | 
18 | Cc1cc(CNC(=O)C(=O)NCCc2ccccn2)c(C)o1 [Example 130, N-(2,5-Dimethyl-furan-3-ylmethyl)-N′-(2-pyridin-2-yl-ethyl)-oxalamide] |  | 112 to 115 | 1010 |  | 
19 | CC1CCCCC1NC(=O)c1nsc(Cl)c1Cl (stereo not shown) [Example E78, 4,5-Dichloro-isothiazole-3-carboxylic acid (2-methyl-cyclohexyl)-amide] |  |  |  | 8510 | 4240
20 | COc1ccc(CNC(=O)C(=O)NCCc2ccccn2)cc1C [Example 135] |  | 145 to 147 | 1040 |  | 
21 | CCCC(CCC)NC(=O)c1ccc(SC)c(C)c1 [Example 51, N-(heptan-4-yl)-3-methyl-4-(methylthio)benzamide] |  | 129 to 131 | 120 |  | 
22 | CCCC(CCC)NC(=O)c1ccc2oc(CC)nc2c1 [Example 41, 2-Ethyl-benzooxazole-5-carboxylic acid (1-propyl-butyl)-amide] |  | 107 to 108 | 680 |  | 
23 | COc1ccc(CNC(=O)C(=O)NCCc2cc(C)ccn2)c(OC)c1 [Example 154, N-(2,4-Dimethoxybenzyl)-N′-(2-(4-methylpyridin-2-yl)ethyl)oxalamide] |  | 144 to 145 | 1640 |  | 
24 | CCCC(CCC)NC(=O)c1ccc2oc(SC)nc2c1 [Example 44, N-(heptan-4-yl)-2-(methylthio)benzo[d]oxazole-5-carboxamide] |  | 113 to 114 | 3100 |  | 
25 | Cc1ccc(CNC(=O)C(=O)NCCc2ccccn2)cc1 [Example 125, N-(4-methyl-benzyl)-N′-(2-pyridin-2-yl-ethyl)-oxalamide] |  | 152 to 154 | 410 |  | 
26 | Cc1ccc(CNC(=O)C(=O)NCCc2ccccn2)n1C [Example 131, N-(1,5-Dimethyl-1H-pyrrol-2-ylmethyl)-N′-(2-pyridin-2-yl-ethyl)-oxalamide] |  | 147 to 149 | 2300 |  | 
